From patent publication US9738614B2, “Malignant and non-malignant disease treatment with Ras antagonists” (PISCES THERAPEUTICS, LLC, priority 2011, dated 2017) come the findings set out here.

The structures appear in SMILES notation.

One assay deals with U87MG cells. Kind of assay: Cell proliferation assay for U87MG cells. It counts as cell-based. As to the method: (§1) The adult glioblastoma cell line U87MG was obtained from a commercial source (ATCC). The pancreatic cancer cell line PANC-1 was obtained from a local laboratory (Indiana University). Both lines were grown in Iscove's Modified Dulbecco's Medium with 10% fetal bovine serum (FBS) at 37° C. and 5% CO2.
(§2) Compounds (1), (2), (3), (4), and (5), which are shown and described above, were each dissolved in ethanol at 10 mg/mL. A measured portion of the solution was pipetted into a microcentrifuge tube. Then, the ethanol was evaporated from each tube using a SpeedVac®, leaving just the compound in the tube. The appropriate amount of chloroform was added to the tube to produce a 0.1 M concentration. The solutions were placed on ice and in the dark so they could be pipetted into 10- and 20-μL aliquots in 1.5 mL microcentrifuge tubes. The solutions were frozen at […] with lids closed tightly and the tubes covered with foil.
(§3) Prior to treating the cells, a tube of the test compound was removed from the freezer and placed under a biosafety hood to evaporate the chloroform in the tubes. Then, dimethyl sulfoxide (DMSO) was added to the tubes to make the correct concentration to use in the experiment (0.1 M stock). The tubes were vortexed, and warm media with 10% FBS was slowly added to make the correct working concentrations to be used in the experiment. The compounds were directly added to each well for treatment.
(§4) U87MG cells were seeded in a 24-well plate, 5000 cells per well, and incubated overnight at 37° C. in serum-free media. The next day they were treated in triplicate with 50 and 100 μM of each test compound (1), (2), (3), (4), and (5) and the reference compound FTS. After five days, the cells were trypsinized (0.5%), stained with trypan blue, and counted to determine the cell number per well. The half-maximal inhibitory concentration (IC50) values were calculated using Multiplex Reader-Fit software made by MiraiBio Group, Hitachi Solutions America, Ltd. In a typical experiment, the control wells averaged 138,000 cells. The results are presented graphically in FIG. 1. The test compounds at 50 μM allowed the following U87MG cell proliferation compared to control: compound (1)—37%, compound (2)—18%, compound (3)—10%, compound (4)—40%, and compound (5)—0%. The reference compound FTS at 50 μM allowed 7% cell proliferation compared to control.
To further evaluate compounds (3) and (5), which inhibited the most cell growth in FIG. 1, more U87MG cells were seeded in 24-well plates, 5000 cells per well, and incubated overnight at 37° C. in serum-free media. The cells were treated the next morning in media with 5% serum in triplicate with standard concentrations of 6.25, 12.5, 25, and 50 μM of each test compound (3) and (5) and the reference compound FTS. After five days of treatment, the cells were trypsinized (0.5%) and then stained with trypan blue. Cells were counted to determine the number of cells per well. Again, the IC50 values were calculated using Multiplex Reader-Fit software made by MiraiBio Group, Hitachi Solutions America, Ltd. In a typical experiment, the control wells averaged 56,000 cells. The results are presented graphically in FIG. 2. The test compounds at 25 μM allowed the following U87MG cell proliferation compared to control: compound (3)—69% and compound (5)—0%. The reference compound FTS at 25 μM allowed over 50% cell proliferation compared to control.
Since the doses of compound (5) used above killed all of the cells, the dose curve was set up again using even lower doses of compound (5). U87MG cells were seeded in 24-well plates, 5000 cells per well, and incubated overnight at 37° C. in serum-free media. The cells were treated in triplicate with 6.25, 12.5, 25, and 50 μM of the reference compound FTS and 0.3125, 0.625, 1.25, 2.5, and 5.0 μM of the test compound (5) in media with 5% serum for five days. Then, the cells were trypsinized (0.5%) and stained with trypan blue, and the cell number per each well was determined. […]

Another assay has as its system PANC-1 cells. Description: Cell proliferation assay for PANC-1 cells. Conditions: 1.25 μM, media with 5% serum, five days (FIG. 3). It counts as cell-based. How it is done: as §1, §2, §3
The cells were treated in triplicate with standard concentrations of 6.25, 12.5, 25, 50, and 100 μM of each test compound (3) and (5) and the reference compound FTS and, when needed, concentrations of 0.625, 1.25, 2.5 and 5.0 μM in media with 5% serum for five days. Then, the cells were stained with trypan blue, and the cell number per each well was determined. Again, the IC50 values were calculated using Multiplex Reader-Fit software made by MiraiBio Group, Hitachi Solutions America, Ltd. In a typical experiment, the control wells averaged 32,500 cells. The results are presented graphically in FIG. 3. […]

The next assay deals with sNFO2.2 cells. Description: IC50 assay with sNFO2.2 MPNST cells. It counts as cell-based. Conditions: Homo sapiens, 0.5 to 20 μM, read-out: half-maximal effect on viability. As to the method:
as §4
Two additional MPNST cell lines, sNF94.3 and sNFO2.2, were subjected to IC50 assays similar to Examples 6 and 11 above. Like the ST88-14 cells from Example 11, the sNF94.3 and sNFO2.2 cells came from NF-1 patients too.

For another assay, the system named is LAM cells. Kind of assay: IC50 assay with lymphangioleiomyomatosis (LAM) cells. It counts as cell-based. Conditions: Homo sapiens, 0.1 to 50 μM, read-out: half-maximal inhibition of viability. As to the method:
as §4
Human lymphangioleiomyomatosis (LAM) cells were subjected to an IC50 assay similar to Example 6 above.

For the next assay, the system named is ST88-14 cells. Description: ST88-14 MPNST flank tumors in nude mice. It counts as in vivo, mouse. Conditions: 5 mg/kg or 10 mg/kg intraperitoneally once a day. As to the method: ST88-14 cells were injected into the flanks of nude mice and tumors were allowed to grow. When their lengths and widths could readily be determined by palpation, the animals were treated with compound (5) at doses of 5 mg/kg or 10 mg/kg intraperitoneally once a day or vehicle. Tumor dimensions were determined over the course of a 35 day treatment period at the end of which the animals were killed. At this point the tumors were removed and weighed.

In the case of `CC(C)=CCC/C(C)=C/CC/C(C)=C/CSc1ccccc1C1=NCCN1` [compound (5), 2-(2-{[(2E,6E)-3,7,11-trimethyldodeca-2,6,10-trien-1-yl]sulfanyl}phenyl)-4,5-dihydro-1H-imidazole], the “U87MG cell proliferation compared to control” value is 56% in the assay on U87MG cells (2.5 μM, media with 5% serum, five days (FIG. 2)); 0% in the assay with U87MG cells (25 μM, media with 5% serum, five days (FIG. 2)); 0% in the assay on U87MG cells (50 μM, five days, trypan blue cell count (FIG. 1)). In addition, the IC50 in the assay on U87MG cells (Homo sapiens, U-87 MG, value quoted in Example 7, read-out: IC50 as determined on the U87MG cells) was 2500 nM; with sNFO2.2 cells, 2900 nM; in the assay on LAM cells, 4 µM. Also, in the assay on PANC-1 cells, the “PANC-1 cell proliferation compared to control” value stood at 56%. Also, the tumor size result in the assay on ST88-14 cells (35 day treatment) is given as “dose dependent decrease”. Also, the tumor weight result with ST88-14 cells (end of 35 day treatment) is “dose dependent decrease”.
